From the supplement of paper PMC9912026

System: A375_aEGFR2
Experiment: pERK immunofluorescence normalised to no-drug reference (=1); higher = more ERK phosphorylation (less pathway inhibition)
Settings: drug treatment time 24 h, EGF time 8 h
Experimental: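 A375 CRISPRa-EGFR (A375_aEGFR2) or HT29 cells were treated with two-drug dose combinations (vemurafenib, LY3009120, cobimetinib) for 24 h, then stimulated with EGF (100 ng/mL) or mock medium for 8 h. pERK (T202/Y204) was measured by immunofluorescence as the cytosolic population average, normalised to an untreated no-drug reference of the block (=1). Averages of 2 technical replicates. A375 in 5% FBS, HT29 in 10% FBS.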

CCCS(=O)(=O)Nc1ccc(F)c(C(=O)c2c[nH]c3ncc(-c4ccc(Cl)cc4)cc23)c1F [Vemurafenib] + O=C(c1ccc(F)c(F)c1Nc1ccc(I)cc1F)N1CC(O)([C@@H]2CCCCN2)C1 [Cobimetinib]
pERK immunofluorescence normalised
Settings	EGF 0 ng/mL	EGF 100 ng/mL
drug A concentration 0 µM, drug B concentration 31.62 pM	1.03	1.05
drug A concentration 0 µM, drug B concentration 0.0001 µM	1	1.07
drug A concentration 0 µM, drug B concentration 0.000316228 µM	1	1.02
drug A concentration 0 µM, drug B concentration 0.001 µM	0.917	1.01
drug A concentration 0 µM, drug B concentration 0.00316228 µM	0.732	0.906
drug A concentration 0 µM, drug B concentration 0.01 µM	0.399	0.695
drug A concentration 0 µM, drug B concentration 0.0316228 µM	0.188	0.526
drug A concentration 0 µM, drug B concentration 0.1 µM	0.147	0.468
drug A concentration 0 µM, drug B concentration 0.316228 µM	0.141	0.347
drug A concentration 0 µM, drug B concentration 1 µM	0.137	0.196
drug A concentration 0.000316228 µM, drug B concentration 0 µM	1.01	1.04
drug A concentration 0.000316228 µM, drug B concentration 31.62 pM	1.01	1.03
drug A concentration 0.000316228 µM, drug B concentration 0.0001 µM	1.01	1.02
drug A concentration 0.000316228 µM, drug B concentration 0.000316228 µM	0.984	1.02
drug A concentration 0.000316228 µM, drug B concentration 0.001 µM	0.915	0.936
drug A concentration 0.000316228 µM, drug B concentration 0.00316228 µM	0.687	0.804
drug A concentration 0.000316228 µM, drug B concentration 0.01 µM	0.383	0.605
drug A concentration 0.000316228 µM, drug B concentration 0.0316228 µM	0.175	0.498
drug A concentration 0.000316228 µM, drug B concentration 0.1 µM	0.152	0.425
drug A concentration 0.000316228 µM, drug B concentration 0.316228 µM	0.138	0.289
drug A concentration 0.000316228 µM, drug B concentration 1 µM	0.14	0.179
drug A concentration 0.001 µM, drug B concentration 0 µM	1.01	1.05
drug A concentration 0.001 µM, drug B concentration 31.62 pM	1.02	1.04
drug A concentration 0.001 µM, drug B concentration 0.0001 µM	1.01	1.02
drug A concentration 0.001 µM, drug B concentration 0.000316228 µM	0.958	1.05
drug A concentration 0.001 µM, drug B concentration 0.001 µM	0.857	0.99
drug A concentration 0.001 µM, drug B concentration 0.00316228 µM	0.631	0.816
drug A concentration 0.001 µM, drug B concentration 0.01 µM	0.328	0.621
drug A concentration 0.001 µM, drug B concentration 0.0316228 µM	0.172	0.518
drug A concentration 0.001 µM, drug B concentration 0.1 µM	0.142	0.443
drug A concentration 0.001 µM, drug B concentration 0.316228 µM	0.139	0.3
drug A concentration 0.001 µM, drug B concentration 1 µM	0.137	0.172
drug A concentration 0.00316228 µM, drug B concentration 0 µM	1.02	1.06
drug A concentration 0.00316228 µM, drug B concentration 31.62 pM	0.976	1.05
drug A concentration 0.00316228 µM, drug B concentration 0.0001 µM	0.987	1.06
drug A concentration 0.00316228 µM, drug B concentration 0.000316228 µM	0.943	0.991
drug A concentration 0.00316228 µM, drug B concentration 0.001 µM	0.874	0.935
drug A concentration 0.00316228 µM, drug B concentration 0.00316228 µM	0.623	0.81
drug A concentration 0.00316228 µM, drug B concentration 0.01 µM	0.306	0.625
drug A concentration 0.00316228 µM, drug B concentration 0.0316228 µM	0.164	0.525
drug A concentration 0.00316228 µM, drug B concentration 0.1 µM	0.149	0.435
drug A concentration 0.00316228 µM, drug B concentration 0.316228 µM	0.141	0.285
drug A concentration 0.00316228 µM, drug B concentration 1 µM	0.138	0.166
drug A concentration 0.01 µM, drug B concentration 0 µM	0.986	1.03
drug A concentration 0.01 µM, drug B concentration 31.62 pM	0.927	1.02
drug A concentration 0.01 µM, drug B concentration 0.0001 µM	0.905	0.991
drug A concentration 0.01 µM, drug B concentration 0.000316228 µM	0.875	1.01
drug A concentration 0.01 µM, drug B concentration 0.001 µM	0.814	0.909
drug A concentration 0.01 µM, drug B concentration 0.00316228 µM	0.534	0.765
drug A concentration 0.01 µM, drug B concentration 0.01 µM	0.292	0.613
drug A concentration 0.01 µM, drug B concentration 0.0316228 µM	0.198	0.503
drug A concentration 0.01 µM, drug B concentration 0.1 µM	0.144	0.417
drug A concentration 0.01 µM, drug B concentration 0.316228 µM	0.139	0.29
drug A concentration 0.01 µM, drug B concentration 1 µM	0.138	0.165
drug A concentration 0.0316228 µM, drug B concentration 0 µM	0.881	1
drug A concentration 0.0316228 µM, drug B concentration 31.62 pM	0.842	0.991
drug A concentration 0.0316228 µM, drug B concentration 0.0001 µM	0.795	0.944
drug A concentration 0.0316228 µM, drug B concentration 0.000316228 µM	0.753	0.892
drug A concentration 0.0316228 µM, drug B concentration 0.001 µM	0.666	0.834
drug A concentration 0.0316228 µM, drug B concentration 0.00316228 µM	0.441	0.692
drug A concentration 0.0316228 µM, drug B concentration 0.01 µM	0.228	0.567
drug A concentration 0.0316228 µM, drug B concentration 0.0316228 µM	0.161	0.495
drug A concentration 0.0316228 µM, drug B concentration 0.1 µM	0.145	0.414
drug A concentration 0.0316228 µM, drug B concentration 0.316228 µM	0.14	0.282
drug A concentration 0.0316228 µM, drug B concentration 1 µM	0.138	0.164
drug A concentration 0.1 µM, drug B concentration 0 µM	0.659	0.851
drug A concentration 0.1 µM, drug B concentration 31.62 pM	0.542	0.79
drug A concentration 0.1 µM, drug B concentration 0.0001 µM	0.539	0.787
drug A concentration 0.1 µM, drug B concentration 0.000316228 µM	0.489	0.774
drug A concentration 0.1 µM, drug B concentration 0.001 µM	0.404	0.672
drug A concentration 0.1 µM, drug B concentration 0.00316228 µM	0.285	0.615
drug A concentration 0.1 µM, drug B concentration 0.01 µM	0.186	0.553
drug A concentration 0.1 µM, drug B concentration 0.0316228 µM	0.149	0.525
drug A concentration 0.1 µM, drug B concentration 0.1 µM	0.146	0.407
drug A concentration 0.1 µM, drug B concentration 0.316228 µM	0.14	0.283
drug A concentration 0.1 µM, drug B concentration 1 µM	0.14	0.161
drug A concentration 0.316228 µM, drug B concentration 0 µM	0.362	0.697
drug A concentration 0.316228 µM, drug B concentration 31.62 pM	0.311	0.647
drug A concentration 0.316228 µM, drug B concentration 0.0001 µM	0.28	0.635
drug A concentration 0.316228 µM, drug B concentration 0.000316228 µM	0.264	0.643
drug A concentration 0.316228 µM, drug B concentration 0.001 µM	0.235	0.6
drug A concentration 0.316228 µM, drug B concentration 0.00316228 µM	0.187	0.584
drug A concentration 0.316228 µM, drug B concentration 0.01 µM	0.161	0.557
drug A concentration 0.316228 µM, drug B concentration 0.0316228 µM	0.146	0.502
drug A concentration 0.316228 µM, drug B concentration 0.1 µM	0.142	0.388
drug A concentration 0.316228 µM, drug B concentration 0.316228 µM	0.139	0.27
drug A concentration 0.316228 µM, drug B concentration 1 µM	0.139	0.157
drug A concentration 1 µM, drug B concentration 0 µM	0.211	0.639
drug A concentration 1 µM, drug B concentration 31.62 pM	0.195	0.623
drug A concentration 1 µM, drug B concentration 0.0001 µM	0.192	0.614
drug A concentration 1 µM, drug B concentration 0.000316228 µM	0.189	0.614
drug A concentration 1 µM, drug B concentration 0.001 µM	0.175	0.603
drug A concentration 1 µM, drug B concentration 0.00316228 µM	0.169	0.615
drug A concentration 1 µM, drug B concentration 0.01 µM	0.147	0.571
drug A concentration 1 µM, drug B concentration 0.0316228 µM	0.142	0.494
drug A concentration 1 µM, drug B concentration 0.1 µM	0.141	0.382
drug A concentration 1 µM, drug B concentration 0.316228 µM	0.138	0.245
drug A concentration 1 µM, drug B concentration 1 µM	0.141	0.153
drug A concentration 3.16228 µM, drug B concentration 0 µM	0.171	0.647
drug A concentration 3.16228 µM, drug B concentration 31.62 pM	0.161	0.666
drug A concentration 3.16228 µM, drug B concentration 0.0001 µM	0.172	0.648
drug A concentration 3.16228 µM, drug B concentration 0.000316228 µM	0.158	0.647
drug A concentration 3.16228 µM, drug B concentration 0.001 µM	0.152	0.635
drug A concentration 3.16228 µM, drug B concentration 0.00316228 µM	0.147	0.614
drug A concentration 3.16228 µM, drug B concentration 0.01 µM	0.146	0.532
drug A concentration 3.16228 µM, drug B concentration 0.0316228 µM	0.14	0.464
drug A concentration 3.16228 µM, drug B concentration 0.1 µM	0.139	0.305
drug A concentration 3.16228 µM, drug B concentration 0.316228 µM	0.139	0.179
drug A concentration 3.16228 µM, drug B concentration 1 µM	0.14	0.138
drug A concentration 10 µM, drug B concentration 0 µM	0.154	0.664
drug A concentration 10 µM, drug B concentration 31.62 pM	0.152	0.616
drug A concentration 10 µM, drug B concentration 0.0001 µM	0.148	0.612
drug A concentration 10 µM, drug B concentration 0.000316228 µM	0.149	0.579
drug A concentration 10 µM, drug B concentration 0.001 µM	0.147	0.584
drug A concentration 10 µM, drug B concentration 0.00316228 µM	0.149	0.546
drug A concentration 10 µM, drug B concentration 0.01 µM	0.147	0.476
drug A concentration 10 µM, drug B concentration 0.0316228 µM	0.141	0.36
drug A concentration 10 µM, drug B concentration 0.1 µM	0.14	0.209
drug A concentration 10 µM, drug B concentration 0.316228 µM	0.141	0.146
drug A concentration 10 µM, drug B concentration 1 µM	0.146	0.138
